Values of other authors in EP0859828B2, “DELIVERY SYSTEMS” (THE PROCTER & GAMBLE COMPANY, priority 1995, dated 1997).

Conditions: 25°C; cobalt pentaamine catalysts complexed with the named ligand

| Compound | base hydrolysis rates (kOH) [M⁻¹ s⁻¹] |
| --- | --- |
| CC(=O)O [acetate] | 0.00096 |
| oxalate | 0.00025 |
